Results: patent US5003011A, “Therapeutic decapeptides” (The Administrators of the Tulane Educational Fund, priority 1989, dated 1991)
Numbered stars: 1 amine (or outer) side, 2 acyl side, 3 side chain; on linkers, the order of the positions; unused ones are H or OH. Square brackets hold non-standard residues; d marks the D form. Peptide text beside a SMILES is read from it. X1 = O=C([C@@H](CCCCNC1CCCC1)N[*:1])[*:2]; X2 = O=C([C@H](CCCCNC1CCCC1)N[*:1])[*:2]; d2Nal = N[C@H](Cc1ccc2ccccc2c1)C(=O)O

Experiment: Body weight ratio (FBW/IBW) in the MCF-7 subrenal capsule assay
Type: in vivo, mice
From the text: Female CDF-1 mice were implanted with a human mammary tumor (MCF-7) underneath the kidney capsules on day 0. […] The negative control group received vehicle only and the positive control was ovariectomized on day 0.

[1] = Table 2, 100 μg/inj. s.c., QDO5

SMILES: CC(=O)N[C@H](Cc1ccc2ccccc2c1)C(=O)N[C@H](Cc1ccccc1)C(=O)N[C@H](Cc1ccccc1)C(=O)N[C@@H](CO)C(=O)N[C@@H](Cc1ccccc1)C(=O)N[C@H](CCCNC(=N)N)C(=O)N[C@@H](CC(C)C)C(=O)N[C@@H](CCCNC(=N)N)C(=O)N1CCC[C@H]1C(=O)N[C@H](C)C(N)=O [BIM-21024] (HELM PEPTIDE1{[ac].[O=C([C@@H](Cc1ccc2ccccc2c1)N[*:1])[*:2]].[dF].[dF].S.F.[dR].L.R.P.[dA].[am]}$$$$V2.0)
- FBW/IBW = Final Body Weight/Initial Body Weight (Table 3, 25 μg/inj. s.c., QDO5): 1.00

SMILES: CC(C)C[C@H](NC(=O)[C@@H](Cc1c[nH]c2ccccc12)NC(=O)[C@H](Cc1ccc(O)cc1)NC(=O)[C@H](CO)NC(=O)[C@H](Cc1c[nH]c2ccccc12)NC(=O)[C@H](Cc1c[nH]cn1)NC(=O)[C@@H]1CCC(=O)N1)C(=O)N[C@@H](CCCNC(=N)N)C(=O)N1CCC[C@H]1C(=O)NCC(N)=O [BIM-21003, reference compound]
- FBW/IBW = Final Body Weight/Initial Body Weight [1]: 1.04

SMILES: CC(=O)N[C@H](Cc1ccc2ccccc2c1)C(=O)N[C@H](Cc1ccccc1)C(=O)N[C@H](Cc1ccccc1)C(=O)N[C@@H](CO)C(=O)N[C@@H](Cc1ccc(O)cc1)C(=O)N[C@H](CCCCNCc1ccccc1)C(=O)N[C@@H](Cc1ccccc1)C(=O)N[C@@H](CCCNC(=N)N)C(=O)N1CCC[C@H]1C(=O)N[C@H](C)C(N)=O [BIM-21025] (HELM PEPTIDE1{[ac].[O=C([C@@H](Cc1ccc2ccccc2c1)N[*:1])[*:2]].[dF].[dF].S.Y.[O=C([C@@H](CCCCNCc1ccccc1)N[*:1])[*:2]].F.R.P.[dA].[am]}$$$$V2.0)
- FBW/IBW = Final Body Weight/Initial Body Weight (Table 3, 25 μg/inj. s.c., QDO5): 0.97

SMILES: CC(=O)N[C@H](Cc1ccc2ccccc2c1)C(=O)N[C@H](Cc1ccc(Cl)cc1)C(=O)N[C@H](Cc1c[nH]c2ccccc12)C(=O)N[C@@H](CO)C(=O)N[C@@H](Cc1ccc(O)cc1)C(=O)N[C@H](CCCNC(=N)N)C(=O)N[C@@H](Cc1ccccc1)C(=O)N[C@@H](CCCNC(=N)N)C(=O)N1CCC[C@H]1C(=O)N[C@H](C)C(N)=O [BIM-21023] (HELM PEPTIDE1{[ac].[O=C([C@@H](Cc1ccc2ccccc2c1)N[*:1])[*:2]].[O=C([C@@H](Cc1ccc(Cl)cc1)N[*:1])[*:2]].[dW].S.Y.[dR].F.R.P.[dA].[am]}$$$$V2.0)
- FBW/IBW = Final Body Weight/Initial Body Weight (Table 3, 25 μg/inj. s.c., QDO5): 1.01

SMILES: CC(=O)N[C@H](Cc1ccc2ccccc2c1)C(=O)N[C@H](Cc1ccccc1)C(=O)N[C@H](Cc1ccccc1)C(=O)N[C@@H](CO)C(=O)N[C@@H](Cc1ccc(O)cc1)C(=O)N[C@H](CCCCNC1CCCC1)C(=O)N[C@@H](Cc1ccccc1)C(=O)N[C@@H](CCCCNC1CCCC1)C(=O)N1CCC[C@H]1C(=O)N[C@H](C)C(N)=O [BIM-21026] (Ac-[d2Nal][dF][dF]SY[X1]F[X2]P[dA]-NH2)
- FBW/IBW = Final Body Weight/Initial Body Weight (Table 3, 25 μg/inj. s.c., QDO5): 1.01

SMILES: CC(=O)N[C@H](Cc1ccc2ccccc2c1)C(=O)N[C@H](Cc1ccccc1)C(=O)N[C@H](Cc1ccccc1)C(=O)N[C@@H](CO)C(=O)N[C@@H](Cc1ccc(O)cc1)C(=O)N[C@H](CCCNC(=N)N)C(=O)N[C@@H](Cc1ccccc1)C(=O)N[C@@H](CCCNC(=N)N)C(=O)N1CCC[C@H]1C(=O)N[C@H](C)C(N)=O [BIM-21011] (HELM PEPTIDE1{[ac].[O=C([C@@H](Cc1ccc2ccccc2c1)N[*:1])[*:2]].[dF].[dF].S.Y.[dR].F.R.P.[dA].[am]}$$$$V2.0)
- FBW/IBW = Final Body Weight/Initial Body Weight (Table 2, 1 μg/inj. s.c., QDO5): 0.98
- FBW/IBW = Final Body Weight/Initial Body Weight (Table 2, 10 μg/inj. s.c., QDO5): 0.99
- FBW/IBW = Final Body Weight/Initial Body Weight (Table 2, 15 μg/inj. s.c., QDO5): 0.99

SMILES: CC(C)C[C@H](NC(=O)[C@@H](Cc1ccccc1)NC(=O)[C@H](Cc1ccc(O)cc1)NC(=O)[C@H](CO)NC(=O)[C@H](Cc1c[nH]c2ccccc12)NC(=O)[C@H](Cc1c[nH]cn1)NC(=O)[C@@H]1CCC(=O)N1)C(=O)N[C@@H](CCCNC(=N)N)C(=O)N1CCC[C@H]1C(=O)NCC(N)=O [BIM-21006, reference compound]
- FBW/IBW = Final Body Weight/Initial Body Weight [1]: 0.99

SMILES: CC(=O)N[C@H](Cc1ccc2ccccc2c1)C(=O)N[C@H](Cc1ccc(Cl)cc1)C(=O)N[C@H](Cc1ccccc1)C(=O)N[C@@H](CO)C(=O)N[C@@H](Cc1ccc(O)cc1)C(=O)N[C@H](CCCNC(=N)N)C(=O)N[C@@H](Cc1ccccc1)C(=O)N[C@@H](CCCNC(=N)N)C(=O)N1CCC[C@H]1C(=O)N[C@H](C)C(N)=O [BIM-21009] (HELM PEPTIDE1{[ac].[O=C([C@@H](Cc1ccc2ccccc2c1)N[*:1])[*:2]].[O=C([C@@H](Cc1ccc(Cl)cc1)N[*:1])[*:2]].[dF].S.Y.[dR].F.R.P.[dA].[am]}$$$$V2.0)
- FBW/IBW = Final Body Weight/Initial Body Weight (Table 2, 1 μg/inj. s.c., QDO5): 0.98
- FBW/IBW = Final Body Weight/Initial Body Weight (Table 2, 10 μg/inj. s.c., QDO5): 0.99

SMILES: CC(C)[C@@H]1NC(=O)[C@H](CCCCN)NC(=O)[C@@H](Cc2c[nH]c3ccccc23)NC(=O)[C@H](Cc2ccc(O)cc2)NC(=O)[C@@H](NC(=O)[C@H](N)Cc2ccc3ccccc3c2)CSSC[C@@H](C(=O)N[C@H](C(N)=O)[C@@H](C)O)NC1=O [BIM-23014C, reference compound]
- FBW/IBW = Final Body Weight/Initial Body Weight (Table 3, 2 μg/inj. s.c., QDO5, b.i.d.): 1.00
- FBW/IBW = Final Body Weight/Initial Body Weight (Table 3, 10 μg/inj. s.c., QDO5, b.i.d.): 0.99
- FBW/IBW = Final Body Weight/Initial Body Weight (Table 3, 50 μg/inj. s.c., QDO5, b.i.d.): 0.98
